Experiments:
Botrytis cinerea = assay: Effect test on cucumber gray mold (cucumber cotyledons, paper disc); type: in vivo; conditions: 20° C., 4 days
Experimental: Cotyledons were harvested from cucumbers (variety: Hikari No. 3 P-type) that had been grown in a greenhouse for 3 weeks in a plastic pot having a diameter of 6 cm. The harvested cotyledons were placed side by side in a Tupperware container in which wetted filter paper was laid, and a paper disc having a diameter of 8 mm was placed on the center of each of the cotyledons. To each paper disc, 50 μL of a suspension of Botrytis cinerea spores (2×10^4/ml, containing 2% of sucrose and 0.2% of a yeast extract) was added, and at the same time, 50 μL of a phosphate buffer (40 mM, pH 7.2) having dissolved therein each wettable powder prepared in Formulation Example 1 at a target concentration was added. A lid was placed on the Tupperware container, which was kept at 20° C. for 4 days. After that, diseased areas were investigated with eyes to determine a preventive value. The preventive value (%) was calculated using the following equation. Preventive value=(1−(diameter of infection zone in leaf with test compound/diameter of infection zone in control leaf))×100

cucumber powdery mildew = assay: Effect test on cucumber powdery mildew (potted cucumbers, spray); type: in vivo; conditions: 10 days after inoculation
Description: A sufficient amount of a dilute solution of each wettable powder prepared in Formulation Example 1 was spread with a spray gun on cucumbers (variety: Hikari No. 3 P-type) that had been grown in a greenhouse to the third-leaf unfolding stage in a plastic pot having a diameter of 6 cm. The next day, the cucumbers were inoculated with a suspension of cucumber powdery mildew spores by misting. The cucumbers were allowed to stand in the greenhouse for 10 days, and diseased area ratios in the first leaf and the second leaf (first and second leaves from the ground) were investigated with eyes to determine a preventive value. The preventive value (%) was calculated using the following equation. Preventive value=(1−(ratio of infection zone in leaf with test compound/ratio of infection zone in control leaf))×100

| Compound | Preventive value (%) (Botrytis cinerea; single chemical 0.5 ppm) | Preventive value (%) (Botrytis cinerea; single chemical 1 ppm) | Preventive value (%) (Botrytis cinerea; single chemical 2 ppm) | Preventive value (%) (Botrytis cinerea; single chemical 5 ppm) | Preventive value (%) (Botrytis cinerea; single chemical 10 ppm) | Preventive value (%) (cucumber powdery mildew; single chemical 0.5 ppm) | Preventive value (%) (cucumber powdery mildew; single chemical 1 ppm) | Preventive value (%) (cucumber powdery mildew; single chemical 2 ppm) | Preventive value (%) (cucumber powdery mildew; single chemical 5 ppm) | Preventive value (%) (cucumber powdery mildew; single chemical 10 ppm) |
| --- | --- | --- | --- | --- | --- | --- | --- | --- | --- | --- |
| C[C@@H](N)C(=O)N[C@H]1COC(O)[C@H](N)[C@H]1O (stereo partly drawn) [Prumycin, 4-N-D-alanyl-2,4-diamino-2,4-dideoxyarabinose] | 6 | 45 | 55 | 95 | 100 | 7 | 21 | 44 | 69 | 95 |
| iso-C14 [Ile^7]surfactin |  | 0 |  |  | 0 |  | 0 |  |  | 0 |
| surfactin |  | 0 |  |  | 0 |  | 0 |  |  | 0 |
